{
  "source": "patent US8852895B2",
  "about": "“Macrocyclic derivative and assemblies formed therefrom” (University College Dublin, National University of Ireland, priority 2008, dated 2014)",
  "key": {"[1]": {"settings": "DLS, 0.1 mg/mL cyclodextrin in water", "procedure": "A 50 μL aliquot of the stock solution (0.5 mg of cyclodextrin) was transferred to a glass vial. The solvent was evaporated slowly in order to form a thin film of cyclodextrin on the surface of the glass. Millipore water (5 mL) was then used to hydrate the film giving a cyclodextrin solution with a concentration of 0.1 mg/mL. The vial was capped and placed in an oven for 90 minutes at 60° C. The cyclodextrin solutions were then filtered through a 0.45 μm Gelman Acrodisk syringe filter into a fluorimeter cuvette to remove any particles and macro aggregates. DLS investigations of these solutions were carried out using a Malvern Autosizer 4700 equipped with an Innova 70 laser (488 nm) and a photomultiplier at an angle of 90°."}, "Cos-7 cells": {"test_system": "Cos-7 cells", "settings": "cyclodextrin:DNA mass ratios of 10, 15 and 20, 1 μg DNA, FIG. 3", "protocol": "The plasmid DNA used for the transfection studies was the pGL3luc plasmid. This plasmid contains the gene that encodes for the firefly luciferase enzyme which allows measurement of gene expression levels in cells.\nThe cyclodextrin was dissolved in chloroform to a concentration of 1 mg/mL. A slow stream of nitrogen was passed over the solution to remove solvent. The cyclodextrin was then reconstituted with a plasmid DNA solution to give a final cyclodextrin concentration of 1 mg/mL. The DNA concentration used depended on the ratio of cyclodextrin:DNA being studied. This cyclodextrin:DNA solution was then sonicated for 1 hour to facilitate size reduction.\nCos-7 cells were seeded at a density of 30,000 cells per well and grown in 24 well plates in media for 20-24 hours. Prior to transfection studies, the cells were rinsed with serum-free media and then incubated in serum-free media for 1 hour. […] DNA complexes were prepared in a final volume of 100 μL so that 1 μg of DNA complexed with the vectors at the desired mass ratio. This was then added to 400 μL of serum-free media and cells which was left at 37° C. for 4 hours. […] Luciferase expression was then determined using a luciferase assay kit (Promega USA) and results were expressed as Relative Light Units (RLU) of luciferase per pg of protein (Bradford assay). […]"}},
  "note": "“And” between values parts separate entries of the source, which are not always exact repeats. Identical values can stand only once. Like-named read-outs stand apart in the source and are kept apart here.",
  "data": [
    {"smiles": "CCCCCCCCOC(=O)CCSCCCO[C@H]1[C@H]2O[C@H]3[C@H](O)[C@@H](OCCCSCCC(=O)OCCCCCCCC)[C@@H](O[C@H]4[C@H](O)[C@@H](OCCCSCCC(=O)OCCCCCCCC)[C@@H](O[C@H]5[C@H](O)[C@@H](OCCCSCCC(=O)OCCCCCCCC)[C@@H](O[C@H]6[C@H](O)[C@@H](OCCCSCCC(=O)OCCCCCCCC)[C@@H](O[C@H]7[C@H](O)[C@@H](OCCCSCCC(=O)OCCCCCCCC)[C@@H](O[C@H]8[C@H](O)[C@@H](OCCCSCCC(=O)OCCCCCCCC)[C@@H](O[C@@H]([C@@H]1O)[C@@H](CSCCN)O2)O[C@@H]8CSCCN)O[C@@H]7CSCCN)O[C@@H]6CSCCN)O[C@@H]5CSCCN)O[C@@H]4CSCCN)O[C@@H]3CSCCN.O=C(O)C(F)(F)F", "note": "[heptakis[6-(2′-aminoethylthio)-2-O-octyloxycarbonylethylsulfanylpropyl]-β-cyclodextrin trifluoroacetic acid salt]", "values": [
      {"measurement": "Zaverage (nm)", "setting": "[1]; Day 1, filtered 0.45 μm, angle 90°, trifluoroacetic acid salt", "result": "76 nm and 85 nm"},
      {"measurement": "Polydispersity", "setting": "[1]; Day 7", "result": 0.251},
      {"measurement": "Zaverage (nm)", "setting": "[1]; Day 7", "result": 82, "unit": "nm"},
      {"measurement": "transfection (luciferase expression) compared with naked DNA and DOTAP", "setting": "Cos-7 cells", "result": "greater than DNA on its own and greater than DOTAP"}
    ]}
  ]
}
